Assay results from paper PMC5617480 (Oncotarget, 2017).

What was measured:
hTERT and c-myc = test: Western blot and RT-PCR of hTERT and c-myc in BEL-7404 cells; type: cell-based, human; settings: BEL-7404, 10 μM, 24 h, compared to complexes 4 and 5
Protocol: To further investigate the mechanism(s) how chiral platinum(II) complexes regulate telomerase activity, two genes (hTERT and c-myc) critically associated with telomerase activation were investigated. BEL-7404 cells were treated with chiral platinum(II) complexes 4–6 at 10 μM for 24 h, and then western blot and RT-PCR were performed to exam the expression of hTERT and c-myc at mRNA and protein levels. […] We further generated a GFP reporter system linked with c-myc or hTRET promotor which bears G4 DNA sequence. The reporter plasmids were transfected into BEL-7404 cells, and then the cells were treated with 10 μM chiral platinum(II) complexes for 24 h.
(§1) Apoptosis analysis c-myc antibody, or anti-β-actin primary antibody and the Apoptosis was detected by flow cytometric analysis corresponding secondary antibody were used to detect of annexin V staining. […] Then, cells were incubated with annexin V-FITC and PI for 1.0 h at Staining for SA-β-Gal activity was carried out room temperature in the dark and immediately analyzed according to Moore and Chen reports. […] The data are presented as biparametric After the long-term incubation with complexes 4–6, the dot plots showing PI red fluorescence vs annexin V-FITC growth medium was aspirated and the BEL-7404 cells green fluorescence. were fixed in 2% formaldehyde/0.2% glutaraldehyde for 15.0 min at room temperature. […]

BEL-7404 cells = test: Senescence induction (SA-β-Gal staining); type: cell-based, human; settings: BEL-7404, 2.0 μM, 7 d, compared with complexes 4 and 5
Protocol: Platinum(II)-based drugs were widely used in anticancer chemotherapies, therefore, we performed experiments to test the potency of chiral platinum(II) complexes 4–6 for inducing senescence and apoptosis in BEL-7404 cells. […] We next investigated the effect of complexes 4–6 on the induction of apoptosis. BEL-7404 cells were incubated with complexes 4 (10 and 20 μM), 5 (10 and 20 μM) and 6 (5, 10 and 20 μM) for 24 h, respectively, and then these cells staining with PI and Annexin-V-FITC were determined by flow cytometry (Figure 3A and Supplementary Figure 18). […] Cells were treated with complexes 4–6 at 10 μM for 48 h, the cell cycle arrest was determined by using flow cytometry. […]
as §1

KM mice = test: Acute toxicity studies, single dose; type: in vivo; settings: for Death (%) on day 14 / No. of death mice, Five-fourteen day / No. of death mice, Four day / No. of death mice, One day / No. of death mice, Three day / No. of death mice, Two day / Total death: 10 animals
Protocol: We further evaluated the safety of chiral platinum(II) complex 6 by using KM mice via the tail vein injection with a single dose of complex 6 at 15, 12, 9.6 and 7.8 mg/kg, respectively. After 14 days, the mortality rate of mice was calculated (Supplementary Figure 31 and Supplementary Table 10). […] However, at higher doses (>7.8 mg/kg), death of mice occurred. Thus, the doses of 7.8 mg/kg of complex 6 were employed in the further in vivo experiment.

[1] = single tail vein dose 7.8 mg/kg
[2] = single tail vein dose 9.6 mg/kg

Substance: cis-[PtCl2(S-(–)-FOA)] [complex 6]
- expression of hTERT and c-myc at mRNA and protein levels (hTERT and c-myc): significantly attenuate
- level of senescence (β-galactosidase stain) (BEL-7404 cells): higher level of senescence
- Death (%) on day 14 (KM mice; [1]): 0%
- No. of death mice, Five-fourteen day (KM mice; [1]): 0
- No. of death mice, Four day (KM mice; [1]): 0
- No. of death mice, One day (KM mice; [1]): 0
- No. of death mice, Three day (KM mice; [1]): 0
- No. of death mice, Two day (KM mice; [1]): 0
- Total death (KM mice; [1]): 0
- acute toxicity finding (KM mice; single tail vein dose 7.8 mg/kg, 14 days): did not kill any animal or cause any abnormality
- Death (%) on day 14 (KM mice; [2]): 10%
- No. of death mice, Five-fourteen day (KM mice; [2]): 0
- No. of death mice, Four day (KM mice; [2]): 0
- No. of death mice, One day (KM mice; [2]): 0
- No. of death mice, Three day (KM mice; [2]): 0
- No. of death mice, Two day (KM mice; [2]): 1
- Total death (KM mice; [2]): 1
- Death (%) on day 14 (KM mice; single tail vein dose 12 mg/kg): 40%
- No. of death mice, Five-fourteen day (KM mice; single tail vein dose 12 mg/kg): 0
- No. of death mice, Four day (KM mice; single tail vein dose 12 mg/kg): 0
- No. of death mice, One day (KM mice; single tail vein dose 12 mg/kg): 3
- No. of death mice, Three day (KM mice; single tail vein dose 12 mg/kg): 1
- No. of death mice, Two day (KM mice; single tail vein dose 12 mg/kg): 1
- Death (%) on day 14 (KM mice; single tail vein dose 15 mg/kg): 90%
- No. of death mice, Five-fourteen day (KM mice; single tail vein dose 15 mg/kg): 0
- No. of death mice, Four day (KM mice; single tail vein dose 15 mg/kg): 0
- No. of death mice, One day (KM mice; single tail vein dose 15 mg/kg): 7
- No. of death mice, Three day (KM mice; single tail vein dose 15 mg/kg): 1
- No. of death mice, Two day (KM mice; single tail vein dose 15 mg/kg): 1
- Total death (KM mice; single tail vein dose 15 mg/kg): 9
